# Experimental data taken from article PMC7232442, “Biofilm Eradication by Symmetrical Selenoesters for Food-Borne Pathogens” (Microorganisms, 2020).
# Where “and” joins values, the source holds several entries; their conditions need not be identical. Equal values may be shown once. Where a name gives a salt, the structure may show the parent alone. Read-outs that look alike come from different tables or passages of the source.
# Legend:
# [1] = tested on: S. Typhimurium SE03 ΔacrA; assay: Real-time ethidium bromide accumulation assay; format: cell-based, Salmonella enterica serovar Typhimurium; design: key to Relative Fluorescence Index (RFI): RFI = (RFtreated − RFuntreated)/RFuntreated at minute 60; details: for Relative Fluorescence Index (RFI): S. Typhimurium SE03 ΔacrA, ½ MIC, minute 60
# Experimental: (§1) The impact of compounds on EB accumulation was determined by the automated EB method using a CLARIOstar Plus plate reader (BMG Labtech, UK). Firstly, the bacterial strain was incubated until it reached an optical density (OD) of 0.6 at 600 nm. The culture was washed with phosphate buffered saline (PBS; pH 7.4) and centrifuged at 13,000× g for 3 min, the cell pellet was re-suspended in PBS. The compounds were added at ½ MIC concentration to PBS containing a non-toxic concentration of EB (1 µg/mL). Then, 50 μL of the EB solution containing the compound were transferred into 96-well black microtiter plate (Greiner Bio-One Hungary Kft, Hungary), and 50 μL of bacterial suspension (OD600 0.6) were added to the each well. Then, the plates were placed into the CLARIOstar plate reader, and the fluorescence was monitored at excitation and emission wavelengths of 530 nm and 600 nm every minute for one hour on a real-time basis. From the real-time data, the activity of the compounds, namely the relative fluorescence index (RFI) of the last time point (minute 60) of the EB accumulation assay, was calculated according to the following formula:RFI = (RFtreated − RFuntreated)/RFuntreated(2) where RFtreated is the relative fluorescence (RF) at the last time point of EB retention curve in the presence of an inhibitor, and RFuntreated is the RF at the last time point of the EB retention curve of the untreated control having the solvent control (DMSO).
# [2] = tested on: S. Typhimurium SE39 ΔtolC; assay: Real-time ethidium bromide accumulation assay; format: cell-based, Salmonella enterica serovar Typhimurium; design: key to Relative Fluorescence Index (RFI): RFI = (RFtreated − RFuntreated)/RFuntreated at minute 60; details: for Relative Fluorescence Index (RFI): S. Typhimurium SE39 ΔtolC, ½ MIC, minute 60; for Intracellular EB accumulation (in words): S. Typhimurium SE39, 60 min
# Experimental: as §1
# S. aureus ATCC 25923 [3] = assay: Real-time ethidium bromide accumulation assay; format: cell-based, Staphylococcus aureus; design: key to Relative Fluorescence Index (RFI): RFI = (RFtreated − RFuntreated)/RFuntreated at minute 60; details: for Relative Fluorescence Index (RFI): S. aureus ATCC 25923, ½ MIC, minute 60
# Experimental: as §1
# [4] = tested on: S. Typhimurium SE02 ΔacrB; assay: Real-time ethidium bromide accumulation assay; format: cell-based, Salmonella enterica serovar Typhimurium; details: for Relative Fluorescence Index (RFI): S. Typhimurium SE02 ΔacrB, ½ MIC, minute 60
# Experimental: as §1
# [5] = tested on: S. Typhimurium SE01 Wild-Type; assay: Real-time ethidium bromide accumulation assay; format: cell-based, Salmonella enterica serovar Typhimurium; details: ½ MIC, minute 60
# Experimental: as §1
# S. aureus ATCC 25923 [6] = assay: Resistance modulation assay (checkerboard) with TET or CIP; format: cell-based, Staphylococcus aureus; details: S. aureus ATCC 25923; no selenocompound
# Experimental: (§2) The resistance modulation effect of compounds with ciprofloxacin (CIP) and tetracycline (TET) antibiotics were evaluated by the checkerboard method on S. aureus strains. Briefly, CIP or TET was diluted in a 96-well microtiter plate by two-fold serial dilution in MH broth and then the compounds were added at subinhibitory concentrations (½ MIC). In this assay, only the tested compounds with well-defined MIC values were tested. Finally, 10^−4 dilution of the overnight bacterial culture in MH was added to each well. The final volume was 200 µL in each well. The microtiter plates were incubated at 37 °C for 18 h. MIC values in the presence of the antibiotics alone and in combination with Se-compounds were determined by visual inspection.
# S. aureus MRSA 272123 [7] = assay: as above; format: cell-based, Staphylococcus aureus; details: S. aureus MRSA 272123; no selenocompound
# Experimental: as §2
# S. aureus MRSA 272123 [8] = assay: MIC determination by microdilution method; format: cell-based; details: Staphylococcus aureus
# Experimental: (§3) The minimum inhibitory concentrations (MICs) of compounds were determined according to the Clinical and Laboratory Standard Institute guidelines (CLSI). MIC values of the compounds were determined by visual inspection. The solvent was also assayed to ensure there was no antibacterial effect and the concentration (1 v/v%) applied in the assays had no antibacterial activity. DMSO was used at subinhibitory concentration (1 v/v%) in the assays.
# [9] = tested on: Staphylococcus aureus ATCC 25923; assay: MIC determination by microdilution method; format: cell-based; details: S. aureus ATCC 25923
# Experimental: as §3
# [10] = tested on: MRC-5 human embryonal lung fibroblast cells; assay: Cytotoxicity assay (MTT); format: cell-based; details: MRC-5 cells
# Experimental: The adherent MRC-5 human embryonal lung fibroblast cells were cultured in 96-well flat-bottomed microtiter plates, using EMEM supplemented with 10% heat-inactivated fetal bovine serum. The density of the cells was adjusted to 1 × 10^4 cells in 100 μL per well, the cells were seeded overnight at 37 °C, 5% CO2, then the medium was removed from the plates containing the cells, and the dilutions of selenocompounds previously made in a separate plate were added to the cells in 200 μL.
# The culture plates were incubated at 37 °C for 24 h; at the end of the incubation period, 20 μL of MTT (thiazolyl blue tetrazolium bromide, Sigma) solution (from a stock solution of 5 mg/mL) was added to each well. After incubation at 37 °C for 4 h, 100 μL of sodium dodecyl sulfate (SDS; Sigma) solution (10% in 0.01 M HCI) was added to each well and the plates were further incubated at 37 °C overnight. Cell growth was determined by measuring the optical density (OD) at 540/630 nm with Multiscan EX ELISA reader (Thermo Labsystems, Cheshire, WA, USA). Inhibition of the cell growth was determined according to the formula below:IC50 = 100 − [(ODsample − ODmedium control)/(ODcell control − ODmedium control)] × 100(1)
# Results are expressed in terms of IC50, defined as the inhibitory dose that reduces the growth of the cells exposed to the tested compounds by 50%.
# S. aureus MRSA = assay: Biofilm formation using crystal violet; format: cell-based, Staphylococcus aureus; details: for Biofilm inhibition: ½ MIC, 48 h
# Experimental: The anti-biofilm effect of the tested compounds against S. aureus strains and wild-type S. Typhimurium SE01 was measured using crystal violet (CV; 0.1% (v/v)). This dye is used to detect the total biofilm biomass formed. Overnight cultures were diluted to OD of 0.1 at 600 nm in TSB medium. Then, the bacterial cultures were added to 96-well microtiter plates and the compounds were added at ½ MIC concentration. The final volume was 200 μL in each well. The microtiter plates were incubated at 30 °C for 48 h with gentle agitation (100 rpm). After the incubation period, TSB medium was discarded, and the plates were washed with tap water to remove unattached cells. Then 200 μL crystal violet was added to the wells and incubated for 15 min at room temperature. Then, CV was removed from the wells and the plates were washed again with tap water, and 200 μL of 70% ethanol was added to the wells. Finally, the biofilm formation was determined by measuring the OD at 600 nm using Multiscan EX ELISA plate reader (Thermo Labsystems, Cheshire, WA, USA). The anti-biofilm effect of compounds was expressed in the percentage (%) of decrease in biofilm formation.
# S. aureus MRSA 272123 [11] = assay: Real-time ethidium bromide accumulation assay; format: cell-based, Staphylococcus aureus; details: for Relative Fluorescence Index (RFI): S. aureus MRSA 272123, ½ MIC, minute 60
# Experimental: as §1
# [12] = tested on: S. Typhimurium SE01 Wild-Type; assay: MIC determination by microdilution method; format: cell-based, Salmonella enterica serovar Typhimurium; details: Salmonella enterica
# Experimental: as §3
# [13] = tested on: S. Typhimurium SE02 ΔacrB; assay: MIC determination by microdilution method; format: cell-based, Salmonella enterica serovar Typhimurium; details: Salmonella enterica
# Experimental: as §3
# [14] = tested on: S. Typhimurium SE03 ΔacrA; assay: MIC determination by microdilution method; format: cell-based, Salmonella enterica serovar Typhimurium; details: Salmonella enterica
# Experimental: as §3
# [15] = tested on: S. Typhimurium SE39 ΔtolC; assay: MIC determination by microdilution method; format: cell-based, Salmonella enterica serovar Typhimurium; details: Salmonella enterica
# Experimental: as §3
# [16] = S. aureus MRSA 272123, read-out: MIC
# [17] = Staphylococcus aureus, ATCC25923
# [18] = S. Typhimurium SE01 wild-type, read-out: MIC
Structure (SMILES),Relative Fluorescence Index (RFI) [1],Relative Fluorescence Index (RFI) [2],Relative Fluorescence Index (RFI) (S. aureus ATCC 25923 [3]),Relative Fluorescence Index (RFI) [4],Relative Fluorescence Index (RFI) [5],MIC (S. aureus MRSA 272123 [8]; [16]) [µM],"MIC [9, 17] [µM]","IC50 ([10]; Homo sapiens, MRC5, 24 h) [µM]",IC50 ([10]; 24 h) [µM],Relative Fluorescence Index (RFI) (S. aureus MRSA 272123 [11]),"MIC [12, 18] [µM]",MIC [13] [µM],MIC [14] [µM],other results
"N#CC(C#N)=NNc1cccc(Cl)c1 [CCCP, carbonyl cyanide m-chlorophenyl hydrazone, reference compound]",1.81,1.32,0.52,2.46,3.50,–,–,–,–,–,–,–,–,–
"O=C(O)c1cn(C2CC2)c2cc(N3CCNCC3)c(F)cc2c1=O [CIP, ciprofloxacin-hydrochloride, reference compound]",–,–,–,–,–,–,–,–,–,–,–,–,–,MIC of the antibiotic alone (S. aureus ATCC 25923 [6]): 1.06 µM; MIC of the antibiotic alone (S. aureus MRSA 272123 [7]): 33.99 µM
N#CC[Se]C(=O)c1ccc(C(=O)[Se]CC#N)cc1 [Se-C1],0.04,0.13,0.14,0.06,−0.08,50,6.25,> 75,> 100,−0.15,25,–,–,Biofilm inhibition (S. aureus MRSA): 43.7% and ~50%
N#CCC[Se]C(=O)c1cccc(C(=O)[Se]CC#N)c1 [Se-C2],0.09,0.25,0.08,0.03,−0.10,50,6.25,> 75,> 100,−0.13,25,–,–,–
N#CC[Se]C(=O)c1cc(C(=O)[Se]CC#N)cc(C(=O)[Se]CC#N)c1 [Se-C3],0.08,0.06,0.18,−0.02,−0.07,–,1.56,> 75,> 100,−0.05,–,12.5,12.5,MIC (S. aureus MRSA 272123 [8]; MRSA): 12.5 µM; MIC fold higher than the methylketone selenoester [9]: 4 fold; MIC ([12]; TYPHIMURIUM): 12.5 µM; MIC [15]: 25 µM
COC(=O)C[Se]C(=O)c1cccc(C(=O)[Se]CC(=O)OC)c1 [Se-E2],0.56,0.59,0.67,0.70,0.09,100,12.5,> 75,> 100,0.33,> 100,> 100,> 100,"MIC [9]: 12.5 µM; Intracellular EB accumulation (in words) ([1]; S. Typhimurium SE03, 60 min): significantly increased; Intracellular EB accumulation (in words) [2]: significantly increased; EPI activity (in words) (S. aureus ATCC 25923 [3]; reference (sensitive) S. aureus, 60 min): effective; EPI activity (in words) (S. aureus MRSA 272123 [11]; resistant S. aureus MRSA, 60 min): effective; Intracellular EB accumulation (in words) ([4]; S. Typhimurium SE02, 60 min): significantly increased; MIC [15]: > 100 µM"
CC(=O)C[Se]C(=O)c1cc(C(=O)[Se]CC(C)=O)cc(C(=O)[Se]CC(C)=O)c1 [Se-K3],0.28,0.44,0.16,0.08,−0.20,0.78,0.39,0.74,–,−0.18,50,25,25,MIC [9]: 0.39 µM; Anti-biofilm effect (in words) (S. aureus MRSA): most effective anti-biofilm agent; Biofilm inhibition (S. aureus MRSA): 84.7%; Intracellular EB accumulation (in words) [2]: significant EB accumulation
